The text below walks through data of ChEMBL document CHEMBL1146328, “Binding mode and affinity studies of DNA-binding agents using topoisomerase I DNA unwinding assay” (Bioorg Med Chem Lett, 2007).

Series [1] has as its system DNA. Put plainly: Binding affinity to calf thymus DNA by ITC method. It is filed as nucleic-acid assay. Conditions: Bos taurus.
Series [2] in a line: Partition coefficient, log P of the compound. It is filed as physicochemical. Conditions: octanol/water.
For series [3], the species on record is Homo sapiens. The experiment in a line: Binding affinity to DNA by spectrophotometric titration method.
In series [4] the target is T1, DNA topoisomerase 1 (Homo sapiens) (UniProt P11387).
T1 sequence (whole entry): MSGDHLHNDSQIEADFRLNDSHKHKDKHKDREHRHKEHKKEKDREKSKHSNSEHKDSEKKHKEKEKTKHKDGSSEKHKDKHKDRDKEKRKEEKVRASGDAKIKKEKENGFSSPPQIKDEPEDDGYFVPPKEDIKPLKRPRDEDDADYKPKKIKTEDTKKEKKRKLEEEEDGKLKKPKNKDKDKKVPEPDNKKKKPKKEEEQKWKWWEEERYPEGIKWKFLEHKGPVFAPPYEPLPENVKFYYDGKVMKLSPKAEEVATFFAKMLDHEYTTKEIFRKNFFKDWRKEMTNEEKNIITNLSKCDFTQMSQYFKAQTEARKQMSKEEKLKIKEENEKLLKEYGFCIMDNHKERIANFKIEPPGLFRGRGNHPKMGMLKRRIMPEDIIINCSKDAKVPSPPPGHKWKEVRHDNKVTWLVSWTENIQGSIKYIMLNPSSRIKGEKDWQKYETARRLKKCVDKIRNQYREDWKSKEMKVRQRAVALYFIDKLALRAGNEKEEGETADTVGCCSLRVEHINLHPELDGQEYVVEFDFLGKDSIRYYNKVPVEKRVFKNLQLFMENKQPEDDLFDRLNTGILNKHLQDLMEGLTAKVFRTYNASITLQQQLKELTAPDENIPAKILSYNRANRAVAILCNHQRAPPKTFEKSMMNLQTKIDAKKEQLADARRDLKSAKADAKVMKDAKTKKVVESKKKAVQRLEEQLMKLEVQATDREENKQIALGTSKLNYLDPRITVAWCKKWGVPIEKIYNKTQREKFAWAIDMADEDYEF
Put plainly: Binding affinity to topoisomerase 1 assessed as concentration needed for complete DNA re-supercoiling by Topo1 assay.

The species named for series [5] is Homo sapiens. The experiment in a line: Binding affinity to DNA assessed as thermal melting temperature.

In the case of `CCCC[N+](C)(CCCC)CCCN1C(=O)c2ccc3c4c(ccc(c24)C1=O)C(=O)N(CCC[N+](C)(CCCC)CCCC)C3=O`, the K is 5.7 10^5/M in series [1] and 1 10^5/M in series [3]. Also, in series [2], the logP (commonly the decadic logarithm of the partition coefficient of the neutral form, usually between octanol and water) was -0.9. In addition, the Activity in series [4] amounted to 5 µM. Besides, in series [5], the ΔTm (in general, the change in melting temperature against a reference sample) was 4.6 °C.
As to `C[N+](C)(C)CCCN1C(=O)c2ccc3c4c(ccc(c24)C1=O)C(=O)N(CCC[N+](C)(C)C)C3=O`, the K in series [1] was 12.2 10^5/M; in series [3] it was 5 10^5/M. The logP in series [2] was -2.5. Besides, the Activity in series [4] was determined as 3 µM. Moreover, the ΔTm in series [5] is 7.6 °C.
